Experiments:
Type in all cases: cell-based
SK-BR-3, breast cancer = experiment: In vitro cytotoxicity, MTT assay, SK-BR-3; conditions: 96 h, SK-BR-3 human breast cancer cells, 4 days incubation
Protocol: (§1) Three human cancer cell lines (A-549, lung cancer; SK-BR-3, breast cancer; MKN-45, stomach cancer) were tested in MTT assay. These cell lines were grown in RPMI 1640 medium supplemented with penicillin-streptomycin (100 units/mL) and 10% heat-inactivated fetal bovine serum under standard culture condition (20% O2 and 5% CO2, 37° C.). Single-cell suspensions were prepared by trypsinization and pipette disaggregation. The number of cells for each cell line plated in 96-well microtiter plates was determined from the growth curve obtained in MTT assay. Test compounds were diluted from stock solution in DMSO into fresh medium to a 10× concentration. Cells were inoculated into each well in 180 μL of medium and eight different concentrations of 20 μL of test compounds were added to each well. The plates were then incubated for 4 days at 37° C., 5% CO2. After 4 days of culture, 0.1 mg (20 μL of 5 mg/mL) of MTT was added to each well. The plates were then incubated at 37° C. for 4 hours. After the plates were centrifuged at 1,000 rpm for 10 minutes, the supernatant was aspirated. 150 μL of DMSO was added to each well to solubilize formazan crystals. The plates were read immediately at 550 nm on Elisa reader (Dynatech, MR 5000).

A-549, lung cancer = experiment: In vitro cytotoxicity, MTT assay, A-549; conditions: A549, 96 h, A-549 human lung cancer cells, 4 days incubation
Protocol: as §1

MKN-45, stomach cancer = experiment: In vitro cytotoxicity, MTT assay, MKN-45; conditions: 96 h, MKN-45 human stomach cancer cells, 4 days incubation
Protocol: as §1

SMILES	IC50 (SK-BR-3, breast cancer) [µM]	IC50 (A-549, lung cancer) [µM]	IC50 (MKN-45, stomach cancer) [µM]
O=C(C=Cc1ccc(CNC(=O)c2ccc(N3CCN(Cc4cccnc4)CC3)cc2)cc1)NO [Example 1, N-[4-(2-Hydroxycarbamoylvinyl)benzyl]-4-(4-pyridin-3-ylmethylpiperazin-1-yl)benzamide]	3.19	12	38.6
O=C(C=Cc1ccc(CNC(=O)c2ccc(N3CCN(Cc4ccccn4)CC3)cc2)cc1)NO [Example 2, N-[4-(2-Hydroxycarbamoylvinyl)benzyl]-4-(4-pyridin-2-ylmethylpiperazin-1-yl)benzamide]	0.27	1.65	2.94
O=C(C=Cc1ccc(CNC(=O)c2ccc(N3CCN(Cc4ccncc4)CC3)cc2)cc1)NO [Example 3, N-[4-(2-Hydroxycarbamoylvinyl)benzyl]-4-(4-pyridin-4-ylmethylpiperazin-1-yl)benzamide]	1.72	3.02	56.1
O=C(C=Cc1ccc(CNC(=O)c2ccccn2)cc1)NO [Example 4, N-[4-(2-Hydroxycarbamoylvinyl)benzyl]picolinamide]	0.87	2.23	3.64
O=C(C=Cc1ccc(CNC(=O)c2ccc(N3CCCC3)cc2)cc1)NO [Example 5, N-[4-(2-Hydroxycarbamoylvinyl)benzyl]-4-pyrrolidin-1-ylbenzamide]	0.11	0.35	0.8
CN(C)c1ccc(C(=O)NCc2ccc(C=CC(=O)NO)cc2)cc1 [Example 6, 4-Dimethylamino-N-[4-(2-hydroxycarbamoylvinyl)benzyl]benzamide]	0.16	0.48	0.83
O=C(C=Cc1ccc(CNC(=O)c2cccnc2)cc1)NO [Example 7, N-[4-(2-Hydroxycarbamoylvinyl)benzyl]nicotinamide]	1.28	2.89	4.98
O=C(C=Cc1ccc(CNC(=O)OCc2cccnc2)cc1)NO [Example 8, [4-(2-Hydroxycarbamoylvinyl)benzyl]carbamic acid pyridin-3-ylmethyl ester]	1.12	2.61	3.34
O=C(C=Cc1ccc(CS(=O)(=O)Nc2cccnc2)cc1)NO [Example 9, N-Hydroxy-3-[4-(pyridin-3-ylsulfamoylmethyl)phenyl]acrylamide]	22.9	37	62
O=C(C=Cc1ccc(CS(=O)(=O)c2ccccc2)cc1)NO [Example 10, 3-[4-(Benzenesulfonylmethyl)phenyl]-N-hydroxyacrylamide]	4.57	11.1	8.34

From patent US7495022B2, “α,β-unsaturated hydroxamic acid derivatives and their use as histone deacetylase inhibitors” (SK Chemicals Co., Ltd., priority 2002, dated 2009)
